Laboratory results as given in ChEMBL document CHEMBL2375309, “19-[(1'S,4'R)-4'-Hydroxy-1'-methoxy-2'-oxopentyl]geldanamycin, a natural geldanamycin analogue from Streptomyces hygroscopicus 17997” (J Nat Prod, 2013).
Values after ≈ are worked out from the molar mass of the structure shown.

Key:
[1] = Aqueous solubility of the compound; type: physicochemical
[2] = tested on: HepG2; test: Cytotoxicity against human HepG2 cells by MTT assay; type: functional, cell-based

Row | solubility [1] [µg/mL] | SMILES | IC50 [2] [µM]
1 | 7700 (≈ 11.1 mM) | COC1=C2C[C@@H](C)C[C@H](OC)[C@H](O)[C@@H](C)/C=C(\C)[C@H](OC(N)=O)[C@@H](OC)CC/C=C(\C)C(=O)NC(=C([C@H](OC)C(=O)C[C@@H](C)O)C1=O)C2=O | 22.4
2 | 15400 (≈ 22.3 mM) | COC1=C2C[C@@H](C)C[C@H](OC)[C@H](O)[C@@H](C)/C=C(\C)[C@H](OC(N)=O)[C@@H](OC)/C=C\C=C(/C)C(=O)NC(=C([C@H](OC)C(=O)C[C@@H](C)O)C1=O)C2=O | 14.6
3 | 2 (≈ 0.00357 mM) | COC1=C2C[C@@H](C)C[C@H](OC)[C@H](O)[C@@H](C)/C=C(\C)[C@H](OC(N)=O)[C@@H](OC)/C=C\C=C(/C)C(=O)NC(=CC1=O)C2=O [GELDANAMYCIN] | 0.3
